One molecule from PMC6017062, “Probing the Inhibitor versus Chaperone Properties of sp^2-Iminosugars towards Human β-Glucocerebrosidase: A Picomolar Chaperone for Gaucher Disease” (Molecules : A Journal of Synthetic Chemistry and Natural …, 2018) can be followed below.

Test [1] concerns the target T1, α-mannosidase from Jack bean (α-Manase) (Canavalia ensiformis, UniProt C0HJB3).
T1 construct: purchased
T1 sequence (C0HJB3 1-981): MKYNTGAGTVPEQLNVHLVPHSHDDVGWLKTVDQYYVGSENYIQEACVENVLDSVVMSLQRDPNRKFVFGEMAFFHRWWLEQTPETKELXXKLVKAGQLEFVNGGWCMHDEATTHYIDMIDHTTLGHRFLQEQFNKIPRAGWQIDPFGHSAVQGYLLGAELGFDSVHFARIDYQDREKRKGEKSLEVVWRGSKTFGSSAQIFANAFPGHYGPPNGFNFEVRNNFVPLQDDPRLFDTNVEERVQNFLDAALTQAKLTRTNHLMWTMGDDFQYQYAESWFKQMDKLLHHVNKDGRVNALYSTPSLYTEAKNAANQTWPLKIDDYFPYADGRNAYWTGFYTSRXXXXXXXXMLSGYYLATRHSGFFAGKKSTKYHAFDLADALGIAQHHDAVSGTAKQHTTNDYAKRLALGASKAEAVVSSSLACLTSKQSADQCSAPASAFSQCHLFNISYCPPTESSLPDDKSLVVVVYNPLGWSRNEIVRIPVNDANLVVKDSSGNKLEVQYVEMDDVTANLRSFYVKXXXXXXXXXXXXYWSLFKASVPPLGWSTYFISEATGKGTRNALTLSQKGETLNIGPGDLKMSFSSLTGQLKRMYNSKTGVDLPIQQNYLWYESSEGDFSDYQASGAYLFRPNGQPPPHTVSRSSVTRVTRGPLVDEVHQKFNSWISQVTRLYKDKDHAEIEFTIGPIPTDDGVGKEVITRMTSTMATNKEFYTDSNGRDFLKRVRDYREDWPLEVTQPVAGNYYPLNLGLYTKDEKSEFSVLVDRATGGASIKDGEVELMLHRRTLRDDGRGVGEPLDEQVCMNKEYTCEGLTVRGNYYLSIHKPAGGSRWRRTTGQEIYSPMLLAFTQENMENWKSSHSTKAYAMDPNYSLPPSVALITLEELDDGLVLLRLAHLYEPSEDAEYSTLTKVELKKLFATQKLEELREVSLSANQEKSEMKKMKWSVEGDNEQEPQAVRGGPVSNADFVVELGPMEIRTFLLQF
The test is described as follows: Commercial glycosidase inhibition: α-mannosidase from Jack bean (α-Manase). To be noted: mean ± SD, three determinations; competitive; n.i. = no inhibition detected at 1 mM. It counts as biochemical. From the text: (§1) We first evaluated the inhibitory properties of the new nonreducing mono- and bicyclic sp^2-iminosugars 4–15 against a panel of commercial glycosidases that included the α-glucosidases maltase (yeast maltase; α-Glcase1) and isomaltase (α-Glcase2) from Saccharomyces cerevisiae and amyloglucosidase (α-Glcase3) from Aspergillus niger, the β-glucosidases from almonds (β-Glcase1) and bovine liver (β-Glcase2), the α-galactosidase from green coffee beans (α-Galase), the β-galactosidase from Escherichia coli (β-Galase), and the α-mannosidase from Jack bean (α-Manase).
(§2) Inhibition constant (Ki) values were determined by spectrophotometrically measuring the residual hydrolytic activities of the glycosidases against the respective o- (for β-galactosidase from E. coli) or p-nitrophenyl α- or β-D-glycopyranoside (for other glycosidases) in the presence of the iminosugars. Each assay was performed in phosphate buffer or phosphate-citrate buffer (for α- or β-mannosidase and amyloglucosidase) at the optimal pH for the enzymes. The reactions were initiated by addition of the enzyme to a solution of the substrate in the absence or presence of various inhibitor concentrations. The mixture was incubated for 10–30 min at 37 °C or 55 °C (for amyloglucosidase) and the reaction was quenched by addition of 1 M Na2CO3. Reaction times were appropriate to obtain 10–20% conversion of the substrate in order to achieve linear rates. The absorbance of the resulting mixture was determined at 405 nm. Approximate value of Ki was determined from the slope of Dixon plots using a fixed concentration of substrate (around the Km value for the different glycosidases) and various concentrations of inhibitor. Full Ki determinations and enzyme inhibition mode were determined from the slope of Lineweaver–Burk plots and double reciprocal analysis.

The target in test [2] is T2, α-galactosidase from green coffee beans (α-Galase) (Coffea arabica, UniProt Q42656).
T2 construct: purchased
The test is described as follows: Commercial glycosidase inhibition: α-galactosidase from green coffee beans (α-Galase). The test is classed as biochemical. To be noted: mean ± SD, three determinations; competitive; n.i. = no inhibition detected at 1 mM.
Excerpt: as §1, §2

T2 sequence (Q42656 16-378): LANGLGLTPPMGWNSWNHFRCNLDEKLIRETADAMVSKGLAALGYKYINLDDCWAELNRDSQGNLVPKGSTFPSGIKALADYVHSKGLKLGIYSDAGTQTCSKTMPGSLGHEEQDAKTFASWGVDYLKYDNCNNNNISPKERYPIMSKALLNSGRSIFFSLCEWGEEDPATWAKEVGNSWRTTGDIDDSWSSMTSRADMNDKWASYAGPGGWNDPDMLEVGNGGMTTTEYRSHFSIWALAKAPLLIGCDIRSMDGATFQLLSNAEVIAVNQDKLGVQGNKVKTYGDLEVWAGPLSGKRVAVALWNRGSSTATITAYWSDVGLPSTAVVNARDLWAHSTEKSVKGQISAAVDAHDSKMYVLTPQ

`CCCCCCCCN=C1SCC2C(O)C(O)C(O)CN12` (stereo not drawn) [Compound 4, 1-Deoxy-6-thio-5-N,6-S-(N′-octyliminomethylidene)nojirimycin]: the “Ki α-Manase” value in test [1] is “n.i”. The “Ki α-Galase” value in test [2] is “n.i”.
